pIC50: −log10 of the molar value. Where “and” joins values, the source holds several entries; their conditions need not be identical. Equal values may be shown once. Read-outs that look alike come from different tables or passages of the source.

The source of these data is article PMC8634379, “From the Design to the In Vivo Evaluation of Benzohomoadamantane-Derived Soluble Epoxide Hydrolase Inhibitors for the Treatment of Acute Pancreatitis” (Journal of Medicinal Chemistry, 2021).

The target of data set [1] is T1, human sEH (hsEH) (Homo sapiens, UniProt P34913).
T1 sequence (P34913 1-555): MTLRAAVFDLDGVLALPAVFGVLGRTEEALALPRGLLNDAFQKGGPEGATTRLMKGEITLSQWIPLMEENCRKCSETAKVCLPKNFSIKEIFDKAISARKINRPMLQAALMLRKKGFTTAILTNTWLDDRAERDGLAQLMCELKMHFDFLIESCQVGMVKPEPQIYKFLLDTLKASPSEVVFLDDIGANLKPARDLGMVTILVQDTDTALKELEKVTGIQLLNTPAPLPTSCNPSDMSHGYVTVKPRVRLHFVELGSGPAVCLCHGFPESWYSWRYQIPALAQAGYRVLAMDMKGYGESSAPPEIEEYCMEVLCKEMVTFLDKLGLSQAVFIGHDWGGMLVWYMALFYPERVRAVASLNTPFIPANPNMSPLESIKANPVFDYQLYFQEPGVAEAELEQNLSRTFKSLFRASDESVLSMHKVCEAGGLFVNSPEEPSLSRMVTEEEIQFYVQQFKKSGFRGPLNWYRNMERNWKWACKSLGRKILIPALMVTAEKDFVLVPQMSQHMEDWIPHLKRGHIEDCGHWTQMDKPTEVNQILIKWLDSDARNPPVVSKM
In words: sEH inhibition, fluorescent-based assay (CMNPC substrate). To be noted: purified recombinant enzyme, average of three replicates. Type of data set: biochemical. How it is done:
(§1) The IC50 values reported herein were determined using a fluorescent-based assay (CMNPC as substrate).[16] The fluorescent assay was used with purified recombinant human, mouse, or rat sEH proteins. The enzymes were incubated at 30 °C with the inhibitors ([I]final = 0.4–100,000 nM) for 5 min in 100 mM sodium phosphate buffer (200 μL, pH 7.4) containing 0.1 mg/mL of BSA and 1% of DMSO. The substrate (CMNPC) was then added ([S]final = 5 μM). […] Results were obtained by regression analysis from a linear region of the curve.

The target in data set [2] is T2, rat sEH (Rattus norvegicus, UniProt P80299).
T2 sequence (P80299 1-554): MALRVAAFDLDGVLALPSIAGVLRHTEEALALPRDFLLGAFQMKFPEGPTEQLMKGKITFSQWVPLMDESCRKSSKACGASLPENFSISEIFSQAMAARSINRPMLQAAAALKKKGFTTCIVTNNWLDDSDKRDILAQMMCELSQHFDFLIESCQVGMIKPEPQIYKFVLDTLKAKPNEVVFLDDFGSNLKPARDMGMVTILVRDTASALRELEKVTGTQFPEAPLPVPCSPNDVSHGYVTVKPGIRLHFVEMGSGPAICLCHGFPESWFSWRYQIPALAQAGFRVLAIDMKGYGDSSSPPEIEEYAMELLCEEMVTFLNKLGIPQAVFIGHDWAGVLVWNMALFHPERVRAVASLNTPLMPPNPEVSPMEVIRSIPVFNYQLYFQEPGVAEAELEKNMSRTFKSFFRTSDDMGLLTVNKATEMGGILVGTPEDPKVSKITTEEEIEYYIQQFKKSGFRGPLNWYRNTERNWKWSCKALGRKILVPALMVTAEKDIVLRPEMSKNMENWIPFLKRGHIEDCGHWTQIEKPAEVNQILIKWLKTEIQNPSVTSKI
The data set is described as above. Type of data set: biochemical. The note with it: purified recombinant enzyme, average of three replicates. The procedure: as §1

Data set [3] has as its target T3, CYP 1A2 (Homo sapiens, UniProt P05177).
T3 sequence (P05177 1-516): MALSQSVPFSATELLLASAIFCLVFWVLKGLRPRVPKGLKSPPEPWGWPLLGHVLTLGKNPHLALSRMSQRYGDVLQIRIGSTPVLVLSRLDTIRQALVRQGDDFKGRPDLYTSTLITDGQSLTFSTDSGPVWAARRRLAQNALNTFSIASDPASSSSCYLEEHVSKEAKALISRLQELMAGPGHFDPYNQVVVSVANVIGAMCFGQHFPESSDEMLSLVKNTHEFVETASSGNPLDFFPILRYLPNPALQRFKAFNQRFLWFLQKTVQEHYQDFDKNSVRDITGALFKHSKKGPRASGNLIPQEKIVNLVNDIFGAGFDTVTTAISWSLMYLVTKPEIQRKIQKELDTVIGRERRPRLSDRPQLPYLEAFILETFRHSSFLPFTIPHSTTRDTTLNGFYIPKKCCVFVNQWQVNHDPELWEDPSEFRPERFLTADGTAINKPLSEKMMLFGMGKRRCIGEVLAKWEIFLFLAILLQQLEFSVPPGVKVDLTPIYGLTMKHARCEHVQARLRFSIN
Briefly: Cytochrome P450 inhibition, fluorescence detection. Format: in vitro ADME. To be noted: at 10 μM.

Data set [4] has as its target CYP 2C19 (Homo sapiens, UniProt P33261). Briefly: Cytochrome P450 inhibition, fluorescence detection. Type of data set: in vitro ADME.
The nature of data set [5]: Pharmacokinetic study after IP administration. To be noted: for AUC(0-t) / Cl / Cmax / Tmax / Vd / half-life / AUC(0-inf): ip; for AUC(0-inf): AUCINF. Type of data set: in vivo, male C57BL/6 mice. How it is done:
During the experimental procedure, animals were identified with a permanent marker (tail code numbers). […] They underwent a period of at least 5 days of observation and acclimatization between the date of arrival and the start of the procedure. […] Diet was analyzed by the manufacturer to detect possible contaminants. Tap water was supplied by CASSA (Servei d’Aigües de Sabadell) and was provided to the animals by bottles ad libitum. […] Ministry of Agriculture, Livestock, and Fishing of the autonomous government of Catalonia, Spain. […] Formulations were prepared on the day of the study. […] Animals were weighed before each administration to adjust the required volume. […] Blood samples (0.5–0.8 mL) were collected from anesthetized animals with isoflurane by cava vein puncture in tubes containing K2-EDTA 5%. Blood samples were centrifuged at 10,000 rpm for 5 min to obtain plasma that was stored at −20 °C until analysis. Analytical measurements were performed by LC–MS/MS. Pharmacokinetics parameters were calculated with Phoenix 64 (WinNonlin).

Setting [6] is: IC50 calculated for >50% inhibition at 10 μM.
Where [7] appears, read: male, C57BL/6, mouse, in vivo, 3 mg/kg.

Sequence of CYP 2C19 (P33261 whole entry): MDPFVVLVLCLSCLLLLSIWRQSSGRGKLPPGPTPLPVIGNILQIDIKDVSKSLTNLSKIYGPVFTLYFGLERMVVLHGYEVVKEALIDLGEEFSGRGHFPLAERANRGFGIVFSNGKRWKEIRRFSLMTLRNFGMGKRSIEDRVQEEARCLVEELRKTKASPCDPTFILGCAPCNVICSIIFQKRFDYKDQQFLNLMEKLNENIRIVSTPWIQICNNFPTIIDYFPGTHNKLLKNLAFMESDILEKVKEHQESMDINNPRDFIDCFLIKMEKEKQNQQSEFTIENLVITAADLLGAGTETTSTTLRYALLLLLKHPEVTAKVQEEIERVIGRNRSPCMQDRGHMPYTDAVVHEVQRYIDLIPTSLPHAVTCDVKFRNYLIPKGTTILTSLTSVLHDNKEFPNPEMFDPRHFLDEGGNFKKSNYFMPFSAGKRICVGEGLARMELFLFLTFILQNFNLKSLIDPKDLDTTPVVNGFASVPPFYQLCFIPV

Regarding `CC12CC3CC(NC(=O)N[C@H]4CC[C@H](Oc5ccc(C(=O)O)cc5)CC4)(CC(C1)c1ccccc13)C2` [Compound 20, 4-[((1r,4r)-4-(3-(9-Methyl-5,6,8,9,10,11-Hexahydro-7H-5,9:7,11-dimethanobenzo[9]annulen-7-yl)ureido)cyclohexyl)oxy]benzoic Acid], the pIC50 (as a rule, the IC50 on a negative log10 scale, so that one unit is a factor of ten) in data set [1] was 9.05. Further, in data set [2], the pIC50 was 9.40. Besides, the “CYP 1A2 inhibition” value in data set [3] amounted to 1 ± 2%. In addition, in data set [4], the pIC50 was about 5.70 and the “fold more potency inhibiting the sEH than CYP2C19” value turned out to be 2000 fold. In addition, in data set [4] (setting [6]), the pIC50 is 5.72. The “Total Concentration in mouse plasma, individual mice” value (shortened to “Total Concentration in mouse plasma”) in data set [5] (male, C57BL/6, mouse, in vivo, 24 h) stood at 0 ng/mL. In data set [5] (setting [7]), the AUC(0-t) (commonly exposure summed from dosing to a finite time, without extrapolation to infinity) is 2260 ng·h/mL; the Cl was 21.5 mL/min/kg; the Cmax (in general, the peak of the concentration-time curve) worked out at 1610 ng/mL; the time of peak concentration (Tmax) (commonly the time at which the peak concentration occurs) worked out at 0.5 h. In data set [5] (setting [7]), the Vd is 2.18 L/kg; the half-life (usually the time needed for the level to fall by half in the phase considered) was 1.17 h; the AUC(0-inf) (commonly total exposure, with the tail of the curve extrapolated) turned out to be 2320 ng·h/mL.

Regarding `O=C(NC12CC3CC(Cl)(CC(C1)c1ccccc13)C2)N[C@H]1CC[C@H](Oc2ccc(C(=O)O)cc2)CC1` [Compound 22, 4-[((1r,4r)-4-(3-(9-Chloro-5,6,8,9,10,11-hexahydro-7H-5,9:7,11-dimethanobenzo[9]annulen-7-yl)ureido)cyclohexyl)oxy]benzoic Acid], the “CYP 1A2 inhibition” value in data set [3] was 14 ± 4%. In addition, the pIC50 in data set [4] was about 5.70; in data set [4] (setting [6]) it was 5.66. In addition, the “Total Concentration in mouse plasma” value in data set [5] (3 mg/kg ip, 0.25 h (5400 for 20 excluded as outlier)) is 151 ng/mL and 291 ng/mL and 622 ng/mL; in data set [5] (3 mg/kg ip, 0.5 h), 1520 ng/mL and 1980 ng/mL; in data set [5] (3 mg/kg ip, 1 h) it was 1100 ng/mL and 2640 ng/mL and 600 ng/mL; in data set [5] (3 mg/kg ip, 2 h) it was 2440.0 ng/mL and 2640.0 ng/mL and 5670.0 ng/mL; in data set [5] (3 mg/kg ip, 4 h), 1960.0 ng/mL and 1350.0 ng/mL; in data set [5] (3 mg/kg ip, 6 h) it was 1160 ng/mL and 734.0 ng/mL and 1530 ng/mL. The “Total Concentration in mouse plasma” value in data set [5] (3 mg/kg ip, 24 h) was 181.0 ng/mL and 40.6 ng/mL and 92.3 ng/mL. In addition, in data set [5] (male, C57BL/6, mouse, in vivo, 3 mg/kg, 3 mg/kg ip, 0.25 h, read-out: Mean concentration in mouse plasma), the concentration at 0.25 h amounted to 355 ng/mL. Also, the concentration at 0.5 h worked out at 1620 ng/mL in data set [5] (male, C57BL/6, mouse, in vivo, 3 mg/kg, 3 mg/kg ip, 0.5 h, read-out: Mean concentration in mouse plasma) and 1350 ng/mL in data set [5] (male, C57BL/6, mouse, in vivo, 3 mg/kg, 3 mg/kg ip, 0.5 h, read-out: Total Concentration in mouse plasma, individual mice). The concentration at 1 h in data set [5] (male, C57BL/6, mouse, in vivo, 3 mg/kg, 3 mg/kg ip, 1 h, read-out: Mean concentration in mouse plasma) was determined as 1450 ng/mL. The concentration at 2 h in data set [5] (male, C57BL/6, mouse, in vivo, 3 mg/kg, 3 mg/kg ip, 2 h, read-out: Mean concentration in mouse plasma) turned out to be 3580 ng/mL. Moreover, the concentration at 4 h turned out to be 1520 ng/mL in data set [5] (male, C57BL/6, mouse, in vivo, 3 mg/kg, 3 mg/kg ip, 4 h, read-out: Mean concentration in mouse plasma) and 1240 ng/mL in data set [5] (male, C57BL/6, mouse, in vivo, 3 mg/kg, 3 mg/kg ip, 4 h, read-out: Total Concentration in mouse plasma, individual mice). The concentration at 6 h in data set [5] (male, C57BL/6, mouse, in vivo, 3 mg/kg, 3 mg/kg ip, 6 h, read-out: Mean concentration in mouse plasma) is 1140 ng/mL. Further, in data set [5] (male, C57BL/6, mouse, in vivo, 3 mg/kg, 3 mg/kg ip, 24 h, read-out: Mean concentration in mouse plasma), the concentration at 24 h is 105 ng/mL. In addition, the AUC(0-t) in data set [5] (setting [7]) was found to be 22500 ng·h/mL. The same compound gave a Cl in data set [5] (setting [7]) of 2.17 mL/min/kg. The compound also had a Cmax in data set [5] (setting [7]) of 3580 ng/mL. For the same compound, the time of peak concentration (Tmax) in data set [5] (setting [7]) stood at 2 h. The Vd in data set [5] (setting [7]) came to 0.96 L/kg. The compound also had a half-life in data set [5] (setting [7]) of 5.2 h. The compound further showed a total exposure AUC(0-inf) in data set [5] (setting [7]) of 23300 ng·h/mL.

As for `O=C(NC12CC3CC(F)(CC(C1)c1ccccc13)C2)N[C@H]1CC[C@H](Oc2ccc(C(=O)O)cc2)CC1` [Compound 23, 4-[((1r,4r)-4-(3-(9-Fluoro-5,6,8,9,10,11-hexahydro-7H-5,9:7,11-dimethanobenzo[9]annulen-7-yl)ureido)cyclohexyl)oxy]benzoic Acid], the pIC50 was 9.30 in data set [1] and 9.40 in data set [2].
